Like-named read-outs stand apart in the source and are kept apart here.

Format in all cases: cell-based
One test addresses T1, BCR-Abl (Homo sapiens, UniProt P00519).
T1 construct: expressed in transfected cells; host or cells: murine 32D hemopoietic progenitor cells (32D-p210); the other entry of the earlier key: BCR (P11274, Breakpoint cluster region protein)
T1 sequence (P00519 229-512 limits assumed): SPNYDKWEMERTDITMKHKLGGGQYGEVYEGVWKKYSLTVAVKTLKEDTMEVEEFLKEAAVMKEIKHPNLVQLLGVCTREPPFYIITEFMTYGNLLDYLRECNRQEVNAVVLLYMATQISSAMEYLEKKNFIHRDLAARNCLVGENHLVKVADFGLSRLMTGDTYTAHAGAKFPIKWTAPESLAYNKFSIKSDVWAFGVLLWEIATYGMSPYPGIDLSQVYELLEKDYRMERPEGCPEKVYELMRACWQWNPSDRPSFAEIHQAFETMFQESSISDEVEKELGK
Nature of the test: Inhibition of cellular BCR-Abl dependent proliferation (32D-p210 cells). As to the method: Inhibition of Cellular BCR-Abl Dependent Proliferation (High Throughput Method)
The murine cell line used is the 32D hemopoietic progenitor cell line transformed with BCR-Abl cDNA (32D-p210). These cells are maintained in RPMI/10% fetal calf serum (RPMI/FCS) supplemented with penicillin 50 μg/mL, streptomycin 50 μg/mL and L-glutamine […]. Untransformed 32D cells are similarly maintained with the addition of 15% WEHI conditioned medium as a source of IL3.
50 μl of a 32D or 32D-p210 cells suspension are plated in Greiner 384 well microplates (black) at a density of 5000 cells per well. 50 nl of test compound (1 mM in DMSO stock solution) is added to each well (ST1571 is included as a positive control). The cells are incubated for 72 hours at 37° C., 5% CO2. 10 μl of a 60% Alamar Blue solution (Tek diagnostics) is added to each well and the cells are incubated for an additional 24 hours. The fluorescence intensity (Excitation at 530 nm, Emission at 580 nm) is quantified using the Acquest™ system (Molecular Devices).
Inhibition of Cellular BCR-Abl Dependent Proliferation
32D-p210 cells are plated into 96 well TC plates at a density of 15,000 cells per well. 50 μL of two fold serial dilutions of the test compound (Cmax is 40 μM) are added to each well (ST1571 is included as a positive control). […]

A further test has as its target T2, PDGFR-beta (Homo sapiens, UniProt P09619).
T2 construct: expressed in transfected cells; host or cells: BaF3
The test is described as follows: IC50 for BaF3/PDGFR-beta (method not described).

The target in another test is FGFR3 (Homo sapiens, UniProt P22607). The test is described as follows: IC50 for FGFR3 (method not described).
Chain of FGFR3 (P22607 23-806, species assumed): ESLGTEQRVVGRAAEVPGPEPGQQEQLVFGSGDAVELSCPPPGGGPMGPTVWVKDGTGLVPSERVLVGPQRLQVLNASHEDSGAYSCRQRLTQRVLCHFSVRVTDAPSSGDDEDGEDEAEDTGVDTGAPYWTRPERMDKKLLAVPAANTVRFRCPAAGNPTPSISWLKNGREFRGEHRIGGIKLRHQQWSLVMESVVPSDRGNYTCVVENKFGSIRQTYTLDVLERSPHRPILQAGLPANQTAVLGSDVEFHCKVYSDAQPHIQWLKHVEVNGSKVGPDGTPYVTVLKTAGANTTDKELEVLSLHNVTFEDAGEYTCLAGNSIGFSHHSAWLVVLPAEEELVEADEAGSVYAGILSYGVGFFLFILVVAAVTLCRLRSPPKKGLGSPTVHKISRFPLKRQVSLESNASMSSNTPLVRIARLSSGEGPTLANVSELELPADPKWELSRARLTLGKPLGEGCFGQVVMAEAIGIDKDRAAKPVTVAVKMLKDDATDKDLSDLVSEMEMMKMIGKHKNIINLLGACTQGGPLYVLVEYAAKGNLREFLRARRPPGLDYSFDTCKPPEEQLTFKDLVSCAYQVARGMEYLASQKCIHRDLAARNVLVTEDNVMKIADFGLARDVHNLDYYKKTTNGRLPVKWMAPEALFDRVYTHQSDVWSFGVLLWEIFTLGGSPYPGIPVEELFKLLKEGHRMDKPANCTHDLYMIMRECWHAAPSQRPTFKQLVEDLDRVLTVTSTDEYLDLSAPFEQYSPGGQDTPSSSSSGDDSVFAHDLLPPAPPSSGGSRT
The next test deals with T3, FLT3-ITD (Homo sapiens, UniProt P36888, DUP592-605).
T3 construct: expressed in transfected cells; host or cells: murine Ba/F3 cells, retroviral infection
T3 sequence (P36888 with tags, fused parts or gaps DUP592-605): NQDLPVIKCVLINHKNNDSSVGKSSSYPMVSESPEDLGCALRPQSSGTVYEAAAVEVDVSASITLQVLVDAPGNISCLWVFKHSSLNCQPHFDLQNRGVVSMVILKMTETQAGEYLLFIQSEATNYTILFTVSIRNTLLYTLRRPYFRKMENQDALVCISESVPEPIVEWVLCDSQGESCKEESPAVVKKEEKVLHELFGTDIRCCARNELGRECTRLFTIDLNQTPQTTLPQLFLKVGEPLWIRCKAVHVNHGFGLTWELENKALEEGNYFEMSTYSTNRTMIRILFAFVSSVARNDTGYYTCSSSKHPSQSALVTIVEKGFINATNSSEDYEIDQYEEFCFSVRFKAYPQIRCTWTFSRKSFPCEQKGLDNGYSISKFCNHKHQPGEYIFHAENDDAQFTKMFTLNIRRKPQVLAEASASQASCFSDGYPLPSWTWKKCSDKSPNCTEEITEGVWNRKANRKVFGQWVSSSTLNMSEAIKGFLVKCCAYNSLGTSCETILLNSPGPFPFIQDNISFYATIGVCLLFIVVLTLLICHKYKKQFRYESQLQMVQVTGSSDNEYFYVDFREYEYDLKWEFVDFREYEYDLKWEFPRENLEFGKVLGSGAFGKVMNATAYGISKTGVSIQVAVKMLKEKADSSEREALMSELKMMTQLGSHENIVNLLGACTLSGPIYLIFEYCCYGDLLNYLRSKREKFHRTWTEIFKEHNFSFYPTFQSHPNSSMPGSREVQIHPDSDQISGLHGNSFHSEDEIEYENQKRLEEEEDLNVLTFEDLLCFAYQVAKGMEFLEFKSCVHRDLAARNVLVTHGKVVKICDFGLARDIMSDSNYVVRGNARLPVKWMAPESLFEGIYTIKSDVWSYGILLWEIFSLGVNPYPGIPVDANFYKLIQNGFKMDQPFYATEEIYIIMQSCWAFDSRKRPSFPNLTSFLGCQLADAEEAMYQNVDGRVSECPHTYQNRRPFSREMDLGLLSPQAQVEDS
The test is described as follows: Flt-3 inhibition, proliferation of Ba/F3-Flt3-ITD cells. The source says: Compounds that have differential activity (more than or equal to 10 fold difference in sensitivity between Flt3+cell lines and Flt3− cell lines are selected for further study.
The cell lines used for the initial screening are sub-lines of Ba/F3 cells that are engineered to over-express mutant or wild-type (non-mutated) Flt3 following infection with a retrovirus expressing appropriate Flt3 cDNAs. The parent cell line, Ba/F3 is dependent on interleukin-3 for proliferation, and when deprived of IL-3, the cells rapidly cease proliferation and die. The retrovirus expresses Flt3 from the retrovirual LTR and the neo gene from an IRES site. Ba/F3 cells are selected in G418 and analyzed for expression of Flt3 by fluorescence activated cell sorting (FACS). Cell lines with two different Flt3 mutations are used. One mutant expresses a Flt-3 that has a 14 amino acid duplication in the juxtamembrane domain encoded by exon 11, the specific duplication being . . . VDFREYEYDLKWEF . . . […]
Yo-Pro-1 iodide (Molecular Probes) is added to the cells at a final concentration of 2.5 μM in NaCl/Na-citrate buffer. The cells are incubated with Yo-Pro for 10 minutes at room temperature and then read on a fluorimeter for determination of cytotoxicity. Next, the cells are lysed with NP40/EDTA/EGTA buffer, incubated at room temperature for 90 minutes and read for the determination of proliferation. […]

The next test addresses JAK2 (Homo sapiens, UniProt O60674). The test is described as follows: IC50 for JAK2 (method not described).
A further test addresses Tel-TRKC (Homo sapiens, UniProt Q16288). Nature of the test: IC50 for Tel-TRKC (method not described).

T2 sequence (P09619 33-1106, species assumed): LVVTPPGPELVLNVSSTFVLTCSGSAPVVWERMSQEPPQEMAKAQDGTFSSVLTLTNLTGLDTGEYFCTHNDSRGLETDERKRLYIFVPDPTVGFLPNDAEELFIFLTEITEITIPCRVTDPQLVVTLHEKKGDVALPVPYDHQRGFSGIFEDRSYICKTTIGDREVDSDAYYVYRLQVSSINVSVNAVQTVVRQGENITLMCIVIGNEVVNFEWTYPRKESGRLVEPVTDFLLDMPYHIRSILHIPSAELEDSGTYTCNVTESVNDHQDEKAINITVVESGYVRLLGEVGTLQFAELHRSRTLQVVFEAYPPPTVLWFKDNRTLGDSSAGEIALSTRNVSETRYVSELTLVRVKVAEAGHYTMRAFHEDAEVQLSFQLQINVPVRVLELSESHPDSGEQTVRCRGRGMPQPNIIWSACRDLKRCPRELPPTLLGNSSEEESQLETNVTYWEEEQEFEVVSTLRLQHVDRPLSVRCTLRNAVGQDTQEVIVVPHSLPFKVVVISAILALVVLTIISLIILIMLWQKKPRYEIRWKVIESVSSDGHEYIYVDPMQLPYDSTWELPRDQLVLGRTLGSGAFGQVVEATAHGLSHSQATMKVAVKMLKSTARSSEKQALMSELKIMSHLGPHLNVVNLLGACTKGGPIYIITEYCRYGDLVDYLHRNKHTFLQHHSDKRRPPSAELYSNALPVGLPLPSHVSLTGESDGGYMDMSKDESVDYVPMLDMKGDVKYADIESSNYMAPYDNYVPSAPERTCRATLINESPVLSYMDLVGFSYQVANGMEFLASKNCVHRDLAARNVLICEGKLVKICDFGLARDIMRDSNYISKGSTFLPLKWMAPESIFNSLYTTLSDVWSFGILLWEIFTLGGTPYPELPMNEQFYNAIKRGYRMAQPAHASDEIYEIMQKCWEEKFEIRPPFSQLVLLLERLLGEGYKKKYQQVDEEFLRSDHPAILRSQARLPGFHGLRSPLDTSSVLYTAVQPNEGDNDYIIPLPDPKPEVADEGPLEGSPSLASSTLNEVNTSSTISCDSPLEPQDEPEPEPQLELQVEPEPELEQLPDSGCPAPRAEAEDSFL
Chain of JAK2 (O60674 whole entry, species assumed): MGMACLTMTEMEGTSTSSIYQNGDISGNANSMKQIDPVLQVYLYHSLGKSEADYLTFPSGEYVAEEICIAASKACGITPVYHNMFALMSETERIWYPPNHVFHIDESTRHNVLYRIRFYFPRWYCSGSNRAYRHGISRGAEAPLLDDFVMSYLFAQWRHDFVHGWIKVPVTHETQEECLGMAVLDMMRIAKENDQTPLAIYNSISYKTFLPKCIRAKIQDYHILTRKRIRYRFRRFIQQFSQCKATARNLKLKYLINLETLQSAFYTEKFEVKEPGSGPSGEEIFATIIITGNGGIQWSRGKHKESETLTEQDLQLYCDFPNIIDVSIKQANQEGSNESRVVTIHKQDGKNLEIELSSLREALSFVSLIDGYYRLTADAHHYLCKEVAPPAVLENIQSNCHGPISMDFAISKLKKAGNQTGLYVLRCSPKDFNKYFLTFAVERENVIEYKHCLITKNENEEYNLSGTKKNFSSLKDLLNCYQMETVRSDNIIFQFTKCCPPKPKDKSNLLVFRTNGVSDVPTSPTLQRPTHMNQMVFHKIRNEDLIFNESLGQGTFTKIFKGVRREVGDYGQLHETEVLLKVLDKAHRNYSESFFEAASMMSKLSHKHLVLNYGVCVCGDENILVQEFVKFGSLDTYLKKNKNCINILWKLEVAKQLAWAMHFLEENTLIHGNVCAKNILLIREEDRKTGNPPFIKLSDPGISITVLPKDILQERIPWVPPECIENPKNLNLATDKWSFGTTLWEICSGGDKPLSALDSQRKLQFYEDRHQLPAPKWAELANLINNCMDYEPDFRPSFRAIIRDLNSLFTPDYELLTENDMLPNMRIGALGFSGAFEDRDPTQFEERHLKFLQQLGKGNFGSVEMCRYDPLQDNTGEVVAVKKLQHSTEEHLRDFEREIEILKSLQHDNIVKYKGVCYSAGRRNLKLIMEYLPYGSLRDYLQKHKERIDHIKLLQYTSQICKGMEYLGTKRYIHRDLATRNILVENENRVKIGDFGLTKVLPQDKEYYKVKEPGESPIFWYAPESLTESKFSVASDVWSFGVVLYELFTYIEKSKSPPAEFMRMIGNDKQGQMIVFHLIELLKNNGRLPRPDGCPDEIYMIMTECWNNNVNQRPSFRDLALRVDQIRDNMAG
Chain of Tel-TRKC (Q16288 530-839): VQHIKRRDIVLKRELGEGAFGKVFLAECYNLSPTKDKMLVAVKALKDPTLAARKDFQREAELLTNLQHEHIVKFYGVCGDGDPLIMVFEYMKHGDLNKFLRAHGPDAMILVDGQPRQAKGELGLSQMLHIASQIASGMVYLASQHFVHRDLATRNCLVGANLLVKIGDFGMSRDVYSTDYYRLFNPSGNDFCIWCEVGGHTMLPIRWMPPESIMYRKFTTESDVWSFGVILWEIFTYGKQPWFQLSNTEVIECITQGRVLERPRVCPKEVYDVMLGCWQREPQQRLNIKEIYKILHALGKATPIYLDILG
Chain of Tel-TRKC (P41212 1-336 partner): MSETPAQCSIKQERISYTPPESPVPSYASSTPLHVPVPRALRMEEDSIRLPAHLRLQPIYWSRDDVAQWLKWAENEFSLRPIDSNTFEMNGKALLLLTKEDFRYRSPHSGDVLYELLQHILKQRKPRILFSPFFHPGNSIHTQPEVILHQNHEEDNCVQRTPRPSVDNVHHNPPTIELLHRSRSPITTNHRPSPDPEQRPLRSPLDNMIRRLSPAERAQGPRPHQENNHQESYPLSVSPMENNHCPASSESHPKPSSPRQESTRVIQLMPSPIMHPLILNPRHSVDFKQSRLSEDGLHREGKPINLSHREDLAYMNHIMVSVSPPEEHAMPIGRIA

The molecule `COc1ccc(Nc2ncc3ccn(-c4ccnc(Cl)c4)c3n2)c(C)c1` [example 47, [7-(2-Chloro-pyridin-4-yl)-7H-pyrrolo[2,3-d]pyrimidin-2-yl]-(4-methoxy-2-methyl-phenyl)-amine] displayed an IC50 against BCR-Abl of 408 nM. For `COc1cc(Nc2ncc3ccn(-c4cccc(Cc5nnnn5C)c4)c3n2)cc(OC)c1OC` [example 120, {7-[3-(1-Methyl-1H-tetrazol-5-ylmethyl)-phenyl]-7H-pyrrolo[2,3-d]pyrimidin-2-yl}-(3,4,5-trimethoxy-phenyl)-amine], the IC50 at PDGFR-beta (BaF3/PDGFR-beta, read-out: IC50 for BaF3/PDGFR-beta) is 29 nM. As for `COc1cc(Nc2ncc3c(n2)N(c2ccccn2)CC3)cc(OC)c1OC` [example 61, (7-Pyridin-2-yl-6,7-dihydro-5H-pyrrolo[2,3-d]pyrimidin-2-yl)-(3,4,5-trimethoxy-phenyl)-amine], the IC50 against FGFR3 was determined as 284 nM. `COc1cc(Nc2ncc3ccn(-c4cccc(CCC#N)c4)c3n2)cc(OC)c1OC` [example 85, 3-{3-[2-(3,4,5-Trimethoxy-phenylamino)-pyrrolo[2,3-d]pyrimidin-7-yl]-phenyl}-propionitrile] yielded an IC50 at FLT3-ITD of 16 nM. For the molecule `COc1cc(Nc2ncc3ccn(-c4cccc(CC#N)c4)c3n2)cc(OC)c1OC` [example 104, {3-[2-(3,4,5-Trimethoxy-phenylamino)-pyrrolo[2,3-d]pyrimidin-7-yl]-phenyl}-acetonitrile], the IC50 worked out at 282 nM on FGFR3; 342 nM against JAK2; 33 nM on PDGFR-beta (read-out: IC50 for PDGFR-beta); 479 nM against Tel-TRKC; 29 nM against FLT3-ITD.

Source of the values: patent publication US7968557B2, “Substituted pyrrolo[2,3-2]pyrimidines as protein kinase inhibitors” (Novartis AG, priority 2004, dated 2011).
